The target in experiment [1] is Human cGAS amino acids 155-522 (Homo sapiens (Human), UniProt Q8N884). The experiment is described as follows: cGAS biochemical activity assay (ATP remaining, Kinase-Glo Max luminescence). The note with it: human cGAS 155-522, ATP remaining (Kinase-Glo Max); read-out: cGAS IC50. For orientation: In Kinase-Glo more light means more ATP remaining.
Experiment [2] concerns cGAS/STING pathway in THP1 cells. The experiment is described as follows: THP1 cell-based cGAS/STING pathway activity assay (IRF-3-linked luciferase reporter). The note with it: Homo sapiens, THP-1. The text has this: A cellular assay can be used to assess the compounds of the invention for their ability to inhibit the cGAS/STING pathway. Cells that express a luciferase-based reporter that is linked to IRF-3 activation are used to determine response as a function of compound concentration. Such an assay is described in Vincent et al., Nature Communications 2017, 8(1):750, doi: 10.1038/s41467-017-00833-9.
A cellular assay can be used to assess the compounds of the invention for their ability to inhibit the cGAS/STING pathway. Cells that express a luciferase-based reporter that is linked to IRF-3 activation are used to determine response as a function of compound concentration. Such an assay is described in Vincent et al., Nature Communications 2017, 8(1):750, doi: 10.1038/s41467-017-00833-9. Compounds of the invention were assessed using similar assay methods in a THP1 cell assay to generate IC50 values as provided in the following Table 16. In this table, activity level “A” indicates an IC50 value less than 20 μM, “B” indicates an IC50 value between 20 and 100 μM, and “C” indicates an IC50 value above the upper limit of the assay (100 μM), or where an IC50 value could not be generated from the data.
In general terms: A reporter such as luciferase makes a cellular process visible.

Some results are limits rather than exact numbers.

Chain of Human cGAS amino acids 155-522 (Q8N884 157-522): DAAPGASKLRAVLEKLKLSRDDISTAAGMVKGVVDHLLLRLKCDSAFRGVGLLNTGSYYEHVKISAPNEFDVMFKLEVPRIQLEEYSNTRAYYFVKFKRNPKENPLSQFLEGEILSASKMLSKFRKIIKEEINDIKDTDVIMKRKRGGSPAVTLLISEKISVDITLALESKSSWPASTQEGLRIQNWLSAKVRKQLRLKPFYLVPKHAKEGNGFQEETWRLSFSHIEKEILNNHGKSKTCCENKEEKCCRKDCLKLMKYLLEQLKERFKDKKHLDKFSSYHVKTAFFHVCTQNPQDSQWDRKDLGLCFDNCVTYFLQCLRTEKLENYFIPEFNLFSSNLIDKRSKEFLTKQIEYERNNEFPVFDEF

With `COc1cccc(NC(=O)c2c(C)[nH]c3c(-c4ccccc4)c(C(F)(F)F)nn3c2=O)c1` [Compound A1032, N-(3-methoxyphenyl)-5-methyl-7-oxo-3-phenyl-2-(trifluoromethyl)-4,7-dihydropyrazolo[1,5-a]pyrimidine-6-carboxamide], the IC50 in experiment [1] and in experiment [2] was below 20 µM each time.
Consider `Cc1[nH]c2c(-c3ccccc3)c(C(F)(F)F)nn2c(=O)c1-c1nnc(C2(C(F)(F)F)CC2)o1` [Compound D1038, 5-methyl-3-phenyl-2-(trifluoromethyl)-6-(5-(1-(trifluoromethyl)cyclopropyl)-1,3,4-oxadiazol-2-yl)pyrazolo[1,5-a]pyrimidin-7(4H)-one], for which the IC50 in experiment [1] and in experiment [2] was below 20 µM throughout.
Regarding `CCc1cccc2oc(-c3c(C)[nH]c4c(-c5ccccc5)c(C(F)(F)F)nn4c3=O)nc12` [Compound C1046, 6-(4-ethylbenzo[d]oxazol-2-yl)-5-methyl-3-phenyl-2-(trifluoromethyl)pyrazolo[1,5-a]pyrimidin-7(4H)-one], the IC50 in experiment [1] and in experiment [2] was below 20 µM throughout.
Regarding `COCc1nc(-c2c(C)[nH]c3c(-c4ccccc4)c(C(F)(F)F)nn3c2=O)oc1C(C)C` [Compound C1153, 6-(5-isopropyl-4-(methoxymethyl)oxazol-2-yl)-5-methyl-3-phenyl-2-(trifluoromethyl)pyrazolo[1,5-a]pyrimidin-7(4H)-one], the results for the IC50 in experiment [1] and in experiment [2] were below 20 µM and 20 to 100 µM, respectively.
The corresponding values for `Cc1[nH]c2c(-c3ccccc3)c(C(F)(F)F)nn2c(=O)c1-c1nnc(C2CCCN(S(C)(=O)=O)C2)o1` (stereo not drawn) [Compound D1040, 5-methyl-6-(5-(1-(methylsulfonyl)piperidin-3-yl)-1,3,4-oxadiazol-2-yl)-3-phenyl-2-(trifluoromethyl)pyrazolo[1,5-a]pyrimidin-7(4H)-one] are below 20 µM and above 100 µM.
The matching figures for `Cc1[nH]c2c(-c3ccccc3)c(C(F)(F)F)nn2c(=O)c1-c1nnc(N2CCCCC2CN)o1` (stereo not drawn) [Compound D1070, 6-(5-(2-(aminomethyl)piperidin-1-yl)-1,3,4-oxadiazol-2-yl)-5-methyl-3-phenyl-2-(trifluoromethyl)pyrazolo[1,5-a]pyrimidin-7(4H)-one]: below 20 µM and above 100 µM.
The corresponding values for `COc1cccc(CS(=O)(=O)NC(=O)c2c(C)[nH]c3c(-c4ccccc4)c(C(F)(F)F)nn3c2=O)c1` [Compound A1132, N-((3-methoxybenzyl)sulfonyl)-5-methyl-7-oxo-3-phenyl-2-(trifluoromethyl)-4,7-dihydropyrazolo[1,5-a]pyrimidine-6-carboxamide] are below 20 µM and 20 to 100 µM.
In the case of `C=Cc1nn2c(=O)c(-c3nc4c(OC)cccc4o3)c(C)[nH]c2c1-c1ccccc1` [Compound C1241, 6-(4-methoxybenzo[d]oxazol-2-yl)-5-methyl-3-phenyl-2-vinylpyrazolo[1,5-a]pyrimidin-7(4H)-one], the half-inhibitory concentration (IC50) in experiment [1] and in experiment [2] was below 20 µM in each case.
For the molecule `COc1cccc2oc(-c3c(COCC(F)F)[nH]c4c(-c5ccccc5)c(C(F)(F)F)nn4c3=O)nc12` [Compound C1232, 5-((2,2-difluoroethoxy)methyl)-6-(4-methoxybenzo[d]oxazol-2-yl)-3-phenyl-2-(trifluoromethyl)pyrazolo[1,5-a]pyrimidin-7(4H)-one], the results for the half-inhibitory concentration (IC50) in experiment [1] and in experiment [2] were below 20 µM and 20 to 100 µM, respectively.
The corresponding values for `COc1ccccc1NC(=O)Cc1c(C)[nH]c2c(-c3ccccc3)c(C(F)(F)F)nn2c1=O` [Compound B1010, N-(2-methoxyphenyl)-2-(5-methyl-7-oxo-3-phenyl-2-(trifluoromethyl)-4,7-dihydropyrazolo[1,5-a]pyrimidin-6-yl)acetamide] are 20 to 250 µM and 20 to 100 µM.
The matching figures for `COc1cccc2oc(-c3c(-c4cn[nH]c4)[nH]c4c(-c5ccccc5)c(C(F)(F)F)nn4c3=O)nc12` [Compound C1254, 6-(4-methoxybenzo[d]oxazol-2-yl)-3-phenyl-5-(1H-pyrazol-4-yl)-2-(triluoromethyl)pyrazolo[1,5-a]pyrimidin-7(4H)-one]: below 20 µM and above 100 µM.
The matching figures for `COc1cccc(NC(=O)c2c(C)[nH]c3c(-c4ccccc4)c(C(F)(F)F)nn3c2=O)c1Cl` [Compound A1135, N-(2-chloro-3-methoxyphenyl)-5-methyl-7-oxo-3-phenyl-2-(trifluoromethyl)-4,7-dihydropyrazolo[1,5-a]pyrimidine-6-carboxamide]: below 20 µM and below 20 µM.
Regarding `Cc1[nH]c2c(-c3ccccc3)c(C(F)(F)F)nn2c(=O)c1-c1ncc(C2CCCC2)o1` [Compound C1010, 6-(5-cyclopentyloxazol-2-yl)-5-methyl-3-phenyl-2-(trifluoromethyl)pyrazolo[1,5-a]pyrimidin-7(4H)-one], the IC50 in experiment [1] was above 250 µM; in experiment [2], below 20 µM.
The corresponding values for `Cc1[nH]c2c(-c3ccccc3)c(C(F)(F)F)nn2c(=O)c1-c1nc(CO)c(C2CCCCC2)o1` [Compound C1157, 6-(5-cyclohexyl-4-(hydroxymethyl)oxazol-2-yl)-5-methyl-3-phenyl-2-(trifluoromethyl)pyrazolo[1,5-a]pyrimidin-7(4H)-one] are below 20 µM and below 20 µM.
The matching figures for `COc1cc([N+](C)(C)C)cc2oc(-c3c(C)[nH]c4c(-c5ccccc5)c(C(F)(F)F)nn4c3=O)nc12` [Compound C1163, 4-methoxy-N,N,N-trimethyl-2-(5-methyl-7-oxo-3-phenyl-2-(trifluoromethyl)-4,7-dihydropyrazolo[1,5-a]pyrimidin-6-yl)benzo[d]oxazol-6-aminium]: below 20 µM and above 100 µM.
The corresponding values for `COc1cccc2oc(-c3c(-c4cnn(C)c4)[nH]c4c(-c5ccccc5)c(C(F)(F)F)nn4c3=O)nc12` [Compound C1255, 6-(4-methoxybenzo[d]oxazol-2-yl)-5-(1-methyl-1H-pyrazol-4-yl)-3-phenyl-2-(trifluoromethyl)pyrazolo[1,5-a]pyrimidin-7(4H)-one] are below 20 µM and above 100 µM.
For `Cc1[nH]c2c(-c3ccccc3)c(C(F)(F)F)nn2c(=O)c1C(=O)Nc1ccn(C(C)C)n1` [Compound A1065, N-(1-isopropyl-1H-pyrazol-3-yl)-5-methyl-7-oxo-3-phenyl-2-(trifluoromethyl)-4,7-dihydropyrazolo[1,5-a]pyrimidine-6-carboxamide], the values for the IC50 in experiment [1] and in experiment [2] were below 20 µM and 20 to 100 µM, respectively.
The matching figures for `Cc1[nH]c2c(-c3ccccc3)c(C(F)(F)F)nn2c(=O)c1-c1nc2ccccc2[nH]1` [Compound C1005, 6-(1H-benzo[d]imidazol-2-yl)-5-methyl-3-phenyl-2-(trifluoromethyl)pyrazolo[1,5-a]pyrimidin-7(4H)-one]: 20 to 250 µM and above 100 µM.
For `Cc1[nH]c2c(-c3ccccc3)c(C(F)(F)F)nn2c(=O)c1C(=O)NS(=O)(=O)c1ccccn1` [Compound A1120, 5-methyl-7-oxo-3-phenyl-N-(pyridin-2-ylsulfonyl)-2-(trifluoromethyl)-4,7-dihydropyrazolo[1,5-a]pyrimidine-6-carboxamide], the values for the IC50 in experiment [1] and in experiment [2] were below 20 µM and above 100 µM, respectively.
The corresponding values for `Cc1[nH]c2c(-c3ccccc3)c(C#N)nn2c(=O)c1-c1nc2c(N(C)C)cccc2o1` [Compound C1272, 6-(4-(dimethylamino)benzo[d]oxazol-2-yl)-5-methyl-7-oxo-3-phenyl-4,7-dihydropyrazolo[1,5-a]pyrimidine-2-carbonitrile] are below 20 µM and below 20 µM.
Regarding `CCCS(=O)(=O)NC(=O)c1c(C)[nH]c2c(-c3ccccc3)c(C(F)(F)F)nn2c1=O` [Compound A1111, 5-methyl-7-oxo-3-phenyl-N-(propylsulfonyl)-2-(trifluoromethyl)-4,7-dihydropyrazolo[1,5-a]pyrimidine-6-carboxamide], the IC50 in experiment [1] is below 20 µM; in experiment [2], above 100 µM.
For the molecule `COC1CCCc2oc(-c3c(C)[nH]c4c(-c5ccccc5)c(C(F)(F)F)nn4c3=O)nc21` (stereo not drawn) [Compound C1048, 6-(4-methoxy-4,5,6,7-tetrahydrobenzo[d]oxazol-2-yl)-5-methyl-3-phenyl-2-(trifluoromethyl)pyrazolo[1,5-a]pyrimidin-7(4H)-one], the IC50 was below 20 µM in experiment [1] and 20 to 100 µM in experiment [2].
The corresponding values for `CSc1cccc2oc(-c3c(C)[nH]c4c(-c5ccccc5)c(C#N)nn4c3=O)nc12` [Compound C1204, 5-methyl-6-(4-(methylthio)benzo[d]oxazol-2-yl)-7-oxo-3-phenyl-4,7-dihydropyrazolo[1,5-a]pyrimidine-2-carbonitrile] are below 20 µM and above 100 µM.
The matching figures for `Cc1[nH]c2c(-c3ccccc3)c(C(F)(F)F)nn2c(=O)c1-c1nc2ccc(N)cc2o1` [Compound C1156, 6-(6-aminobenzo[d]oxazol-2-yl)-5-methyl-3-phenyl-2-(trifluoromethyl)pyrazolo[1,5-a]pyrimidin-7(4H)-one]: below 20 µM and 20 to 100 µM.

In general, IC50 refers to the concentration needed to halve the response being measured.

The values above are taken from patent US10738056B2 (Aduro BioTech, Inc., priority 2017, dated 2020).
